These are literature values, as cited in article PMC6492937.

Structures are written as SMILES.

The series can be described thus: not told.
For the compound `CCCCN1CCCCCC1=O`, the “log partition octanol / water” value is given as 1.80 log10. For the compound `CCCCCCC(=O)N(C)C`, the “log partition octanol / water” value is 1.89 log10. In the case of `CCCCCCN1CCCC1=O`, the “log partition octanol / water” value is on record as 2.1 log10.

Take `CCCCCC(=O)N(C)C`: the “log partition octanol / water” value is 1.36 log10. With `CCCCCCCCCCCCN1CCCCCC1=O`, the “log partition octanol / water” value is recorded as 6.28 log10. Turning to `CCCCCCCC(=O)N(C)C`, the “log partition octanol / water” value is reported as 2.59 log10. In the case of `CCCCCCCCCC(=O)N1CC(O)CC1C(=O)NCC` (stereo not drawn), the “log partition octanol / water” value is on record as 2.86 log10. In the case of `CCCCCCCCN1CCCC1=O`, the “log partition octanol / water” value is reported as 3.05 log10. As for `CCCCCCN1CCCCC1=O`, the “log partition octanol / water” value is 2.3 log10. For `CCCCCCCCN1CCCCC1=O`, the “log partition octanol / water” value was 3.41 log10. Regarding `CCCCN1CCCCC1=O`, the “log partition octanol / water” value is 1.39 log10. For the compound `CCCCN1CCCC1=O`, the “log partition octanol / water” value is reported as 1.02 log10. With `CCCCCCN1CCCCCC1=O`, the “log partition octanol / water” value is on record as 2.91 log10. For `CCCCCCCCN1CCCCCC1=O`, the “log partition octanol / water” value is on record as 4.04 log10. On to `CCCCCCCCC(=O)N(C)C`, for which the “log partition octanol / water” value is 3.00 log10.
